Test results as given in ChEMBL document CHEMBL5154904, “Discovery and Structural Basis of the Selectivity of Potent Cyclic Peptide Inhibitors of MAGE-A4” (J Med Chem, 2022).
Numbering of substitutions follows the chain as printed. Active and inactive are the calls of the source. The rule behind the calls is not given here. Positions of bridges follow the written chain, without caps; N, C: chain ends. Residues, ends and D or L forms follow the SMILES beside them.

Legend:
Homo sapiens [1] = organism: Homo sapiens; experiment: Inhibition of Eu-W1024 streptavidin-labeled 6 xHis-tagged MAGEA4-MH domain I205A mutant (unknown origin) expressed in Escherichia coli BL21-(DE3) interaction with Ulight-labeled GST-tagged RAD18 (unknown origin) (267 to 402 residues) at 1 uM by LANCE TR-FRET assay
NCI-H1299 = experiment: Inhibition of MAGEA4 in human NCI-H1299 cell lysate interaction with HA-tagged RAD18 (unknown origin) at 1 uM incubated for overnight by co-immunoprecipitation pull down assay; format: subcellular
[2] = tested on: T1, Melanoma-associated antigen 4 (Homo sapiens), P43358 [R299A]; experiment: Binding affinity to recombinant N-terminal His-tagged MAGEA4-MH domain R299A mutant (unknown origin) expressed in Escherichia coli BL21-(DE3) assessed as increase in thermal stability by SYPRO orange dye based differential scanning fluorimetry; conditions: dose <= 10.0 µM
T1 sequence (whole entry): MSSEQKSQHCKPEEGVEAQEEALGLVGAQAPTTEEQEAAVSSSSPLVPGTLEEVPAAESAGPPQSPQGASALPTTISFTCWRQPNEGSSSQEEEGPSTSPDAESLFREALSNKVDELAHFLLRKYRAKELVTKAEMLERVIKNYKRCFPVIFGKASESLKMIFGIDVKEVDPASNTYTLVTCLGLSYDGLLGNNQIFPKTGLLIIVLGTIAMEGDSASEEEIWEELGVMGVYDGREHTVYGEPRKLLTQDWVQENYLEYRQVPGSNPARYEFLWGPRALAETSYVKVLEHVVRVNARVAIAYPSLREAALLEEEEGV

[3] = tested on: T2, Melanoma-associated antigen 4 (Homo sapiens), P43358 [M161A]; experiment: Binding affinity to recombinant N-terminal His-tagged MAGEA4-MH domain M161A mutant (unknown origin) expressed in Escherichia coli BL21-(DE3) assessed as increase in thermal stability by SYPRO orange dye based differential scanning fluorimetry; conditions: dose 10.0 µM
T2 sequence (whole entry): T1 sequence (whole entry) with M161A, A299R

[4] = tested on: T3, Melanoma-associated antigen 4 (Homo sapiens), P43358 [V291A]; experiment: Binding affinity to recombinant N-terminal His-tagged MAGEA4-MH domain V291A mutant (unknown origin) expressed in Escherichia coli BL21-(DE3) assessed as increase in thermal stability by SYPRO orange dye based differential scanning fluorimetry; conditions: dose <= 10.0 µM
T3 sequence (whole entry): T1 sequence (whole entry) with V291A, A299R

Homo sapiens [5] = organism: Homo sapiens; experiment: Inhibition of Eu-W1024 streptavidin-labeled 6 xHis-tagged MAGEA4-MH domain E225A mutant (unknown origin) expressed in Escherichia coli BL21-(DE3) interaction with Ulight-labeled GST-tagged RAD18 (unknown origin) (267 to 402 residues) at 1 uM by LANCE TR-FRET assay
[6] = tested on: T4, Melanoma-associated antigen 4 (Homo sapiens), P43358 [V228A]; experiment: Binding affinity to recombinant N-terminal His-tagged MAGEA4-MH domain V228A mutant (unknown origin) expressed in Escherichia coli BL21-(DE3) assessed as increase in thermal stability by SYPRO orange dye based differential scanning fluorimetry; conditions: dose <= 10.0 µM
T4 sequence (whole entry): T1 sequence (whole entry) with V228A, A299R

[7] = molecular target: T5, Melanoma-associated antigen 4 (Homo sapiens, UniProt P43358); experiment: Binding affinity to recombinant N-terminal His-tagged MAGEA4-MH domain (unknown origin) expressed in Escherichia coli BL21-(DE3) by isothermal titration calorimetry
T5 sequence (P43358 whole entry): T1 sequence (whole entry) with A299R

Homo sapiens [8] = organism: Homo sapiens; experiment: Inhibition of Eu-W1024 streptavidin-labeled 6 xHis-tagged MAGEA4-MH domain M161A mutant (unknown origin) expressed in Escherichia coli BL21-(DE3) interaction with Ulight-labeled GST-tagged RAD18 (unknown origin) (267 to 402 residues) at 1 uM by LANCE TR-FRET assay

inhibition (Homo sapiens [1]): Active
inhibition (NCI-H1299): Active
Tm [2]: < 3.5 °C
Tm [3]: < 3.5 °C
Tm [4]: < 3.5 °C
inhibition (Homo sapiens [5]): Active
Tm [6]: < 3.5 °C
Kd [7]: 9.7 nM
inhibition (Homo sapiens [8]): Active
SMILES: CC[C@H](C)[C@@H]1NC(=O)[C@H](Cc2ccc(O)cc2)NC(=O)CSC[C@@H](C(N)=O)NC(=O)[C@H](CC(N)=O)NC(=O)[C@H](Cc2cnc[nH]2)NC(=O)[C@H](Cc2ccc(O)cc2)NC(=O)[C@H](CC(=O)O)NC(=O)[C@H](Cc2ccc(O)cc2)NC(=O)[C@H](CC(C)C)NC(=O)[C@H](CCCNC(=N)N)NC1=O ({CH2CO}-YIRLYDYHNC-NH2; thioether N-10)
